# pIC50: −log10 of the molar value.
# Molecular target: T1, PTP1B (Homo sapiens, UniProt P18031)
# T1 sequence (P18031 1-435): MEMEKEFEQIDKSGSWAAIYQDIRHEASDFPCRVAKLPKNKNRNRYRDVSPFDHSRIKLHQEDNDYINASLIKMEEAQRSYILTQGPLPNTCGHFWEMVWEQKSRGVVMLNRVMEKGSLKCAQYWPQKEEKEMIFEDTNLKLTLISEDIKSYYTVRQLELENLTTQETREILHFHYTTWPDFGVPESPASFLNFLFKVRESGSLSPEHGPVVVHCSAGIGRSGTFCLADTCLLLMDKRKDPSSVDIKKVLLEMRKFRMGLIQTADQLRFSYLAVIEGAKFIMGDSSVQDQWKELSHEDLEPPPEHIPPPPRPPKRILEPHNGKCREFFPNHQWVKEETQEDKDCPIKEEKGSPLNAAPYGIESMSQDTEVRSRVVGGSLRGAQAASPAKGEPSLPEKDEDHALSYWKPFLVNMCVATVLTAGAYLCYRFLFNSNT
# Assay: PTP1B activity (IC50)
# Assay type: biochemical
row,SMILES,pIC50
1,CCc1cnc([C@H](Cc2ccc(NS(=O)(=O)O)cc2)NC(=O)[C@H](Cc2ccccc2)N(C)C(=O)OC)s1 [compound 81],6.19
2,COC(=O)N[C@@H](Cc1ccccc1)C(=O)N[C@@H](Cc1ccc(NS(=O)(=O)O)cc1)c1nc(C)c(-c2ccccc2)s1 [compound 78],6.77
3,COC(=O)N[C@@H](Cc1ccccc1)C(=O)N[C@@H](Cc1ccc(NS(=O)(=O)O)cc1)c1nc(-c2ccsc2)cs1 [compound 73],6.05
4,COC(=O)N(C)[C@@H](Cc1ccccc1)C(=O)N[C@@H](Cc1ccc(NS(=O)(=O)O)cc1)c1csc(-c2cccs2)n1 [compound 83],4.88
5,CCc1nc([C@H](Cc2ccc(NS(=O)(=O)O)cc2)NC(=O)[C@H](Cc2ccccc2)N(C)C(=O)OC)cs1 [compound 82],6.15

# Further compounds by rising pIC50, results first:
row,pIC50,SMILES
1,6.13,COC(=O)N[C@@H](Cc1ccccc1)C(=O)N[C@@H](Cc1ccc(NS(=O)(=O)O)cc1)c1nc2ccccc2s1 [compound 79]
2,6.29,COC(=O)N[C@@H](Cc1ccccc1)C(=O)N[C@@H](Cc1ccc(NS(=O)(=O)O)cc1)c1csc(-c2ccc(-c3ccccn3)s2)n1 [compound 77]
3,6.43,COC(=O)N[C@@H](Cc1ccccc1)C(=O)N[C@@H](Cc1ccc(NS(=O)(=O)O)cc1)c1cscn1 [compound 76]
4,6.52,CCc1csc([C@H](Cc2ccc(NS(=O)(=O)O)cc2)NC(=O)[C@H](Cc2ccccc2)NC(=O)CNC(=O)OC)n1 [compound 80]

# Source: patent publication US8846685B2, “Human protein tyrosine phosphatase inhibitors and methods of use” (Aerpio Therapeutics Inc., priority 2006, dated 2014)
